From patent US8324133B2, “Fungicide 2-pyridyl-methylene-carboxamide derivatives” (Bayer Cropscience AG, priority 2005, dated 2012)

Test: logP by HPLC on reversed-phase column (C 18), EEC Directive 79/831 Annex V.A8
Assay type: physicochemical
Settings: C 18, 40° C., 0.1% aqueous formic acid and acetonitrile gradient
Experimental: Temperature: 40° C.; Mobile phases: 0.1% aqueous formic acid and acetonitrile; linear gradient from 10% acetonitrile to 90% acetonitrile.
Calibration was carried out using unbranched alkan-2-ones (comprising 3 to 16 carbon atoms) with known logP values (determination of the logP values by the retention times using linear interpolation between two successive alkanones).

LogP	SMILES
3.67	Cc1nn(C)c(F)c1C(=O)N(C1CC1)C(C)c1ncc(C(F)(F)F)cc1Cl (centres unmarked) [Compound 46]
2.95	CCC(c1cc(C(F)(F)F)cc(Cl)n1)N(C(=O)c1c(C)nn(C)c1F)C1CC1 (centres unmarked) [Compound 47]
2.83	COC(=O)C(c1ncc(C(F)(F)F)cc1Cl)N(C(=O)c1c(C)nn(C)c1F)C1CC1 (centres unmarked) [Compound 48]
2.53	Cc1nn(C)cc1C(=O)N(Cc1ncc(C(F)(F)F)cc1Cl)C1CC1 [Compound 55]
2.79	Cc1nn(C)cc1C(=O)N(C1CC1)C(C)c1ncc(C(F)(F)F)cc1Cl (centres unmarked) [Compound 56]
3.92	Cn1ncc(C(=O)N(Cc2ncc(C(F)(F)F)cc2Cl)C2CC2)c1Cl [Compound 57]
3.15	CCn1nc(C)c(C(=O)N(Cc2ncc(C(F)(F)F)cc2Cl)C2CC2)c1F [Compound 58]
3.11	CCc1nn(C)c(F)c1C(=O)N(Cc1ncc(C(F)(F)F)cc1Cl)C1CC1 [Compound 59]
2.75	CCOc1nn(C)cc1C(=O)N(Cc1ncc(C(F)(F)F)cc1Cl)C1CC1 [Compound 60]
3.55	O=C(c1ccnn1-c1ccccc1)N(Cc1ncc(C(F)(F)F)cc1Cl)C1CC1 [Compound 63]
3.32	Cc1cc(C(=O)N(Cc2ncc(C(F)(F)F)cc2Cl)C2CC2)no1 [Compound 64]
3.63	Cc1cc(C(=O)N(C2CC2)C(C)c2ncc(C(F)(F)F)cc2Cl)no1 (centres unmarked) [Compound 65]
3	Cc1noc(C)c1C(=O)N(Cc1ncc(C(F)(F)F)cc1Cl)C1CC1 [Compound 68]
4.48	Cc1onc(-c2ccc(Cl)cc2)c1C(=O)N(Cc1ncc(C(F)(F)F)cc1Cl)C1CC1 [Compound 69]
3.68	Cn1cc(C(=O)N(Cc2ncc(C(F)(F)F)cc2Cl)C2CCCC2)c(C(F)F)n1 [Compound 79]
3.32	COc1nn(C)cc1C(=O)N(Cc1ncc(C(F)(F)F)cc1Cl)C1CCCC1 [Compound 80]
4.25	Cc1nc(C(F)F)c(C(=O)N(Cc2ncc(C(F)(F)F)cc2Cl)C2CCCC2)s1 [Compound 81]
4.15	Cn1cc(C(=O)N(Cc2ncc(C(F)(F)F)cc2Cl)C2CCCC2)c(C(F)(F)F)c1 [Compound 82]
5.9	Cc1cc(C(=O)N(Cc2ncc(C(F)(F)F)cc2Cl)C2CC(C)CC(C)(C)C2)c(C)o1 (centres unmarked) [Compound 83]

Second part, the molecule before the results:

SMILES	LogP
O=C(c1ccco1)N(Cc1ncc(C(F)(F)F)cc1Cl)C1CC1 [Compound 1]	3.2
CC(c1ncc(C(F)(F)F)cc1Cl)N(C(=O)c1ccco1)C1CC1 (centres unmarked) [Compound 2]	3.6
Cc1ccoc1C(=O)N(Cc1ncc(C(F)(F)F)cc1Cl)C1CC1 [Compound 3]	3.78
Cc1ccoc1C(=O)N(C1CC1)C(C)c1ncc(C(F)(F)F)cc1Cl (centres unmarked) [Compound 4]	4.22
Cc1cc(C(=O)N(Cc2ncc(C(F)(F)F)cc2Cl)C2CC2)c(C(F)(F)F)o1 [Compound 6]	4.26
Cc1cc(C(=O)N(C2CC2)C(C)c2ncc(C(F)(F)F)cc2Cl)c(C(F)(F)F)o1 (centres unmarked) [Compound 7]	5.19
Cc1occc1C(=O)N(Cc1ncc(C(F)(F)F)cc1Cl)C1CC1 [Compound 8]	3
CC(c1ncc(C(F)(F)F)cc1Cl)N(C(=O)c1sccc1I)C1CC1 (centres unmarked) [Compound 12]	5.09
O=C(c1ccsc1I)N(Cc1ncc(C(F)(F)F)cc1Cl)C1CC1 [Compound 15]	4.17
CC(c1ncc(C(F)(F)F)cc1Cl)N(C(=O)c1ccsc1I)C1CC1 (centres unmarked) [Compound 16]	4.95
Cn1cc(C(=O)N(Cc2ncc(C(F)(F)F)cc2Cl)C2CC2)c(C(F)(F)F)c1 [Compound 17]	3.55
Cc1ncoc1C(=O)N(Cc1ncc(C(F)(F)F)cc1Cl)C1CC1 [Compound 20]	2.85
Cc1ncoc1C(=O)N(C1CC1)C(C)c1ncc(C(F)(F)F)cc1Cl (centres unmarked) [Compound 21]	3.22
Cc1nc(C(=O)N(Cc2ncc(C(F)(F)F)cc2Cl)C2CC2)c(C)o1 [Compound 22]	3.11
Cc1nc(C(=O)N(C2CC2)C(C)c2ncc(C(F)(F)F)cc2Cl)c(C)o1 (centres unmarked) [Compound 23]	3.46
Cc1nc(C(F)(F)F)c(C(=O)N(Cc2ncc(C(F)(F)F)cc2Cl)C2CC2)s1 [Compound 25]	3.86
Cc1nc(C(F)F)c(C(=O)N(Cc2ncc(C(F)(F)F)cc2Cl)C2CC2)s1 [Compound 26]	3.41
Cc1nc(C(F)F)c(C(=O)N(C2CC2)C(C)c2ncc(C(F)(F)F)cc2Cl)s1 (centres unmarked) [Compound 27]	4.34
Cc1ncc(C(=O)N(Cc2ncc(C(F)(F)F)cc2Cl)C2CC2)s1 [Compound 29]	3.15
Cc1nc(C(F)(F)F)c(C(=O)N(C2CC2)C(C)c2ncc(C(F)(F)F)cc2Cl)s1 (centres unmarked) [Compound 30]	4.80
Cc1cc(C(=O)N(C2CC2)C(C)c2ncc(C(F)(F)F)cc2Cl)nn1C (centres unmarked) [Compound 33]	3.15
CC(c1ncc(C(F)(F)F)cc1Cl)N(C(=O)c1cn(C)nc1C(F)F)C1CC1 (centres unmarked) [Compound 35]	3.78
Cn1cc(C(=O)N(Cc2cc(C(F)(F)F)cc(Cl)n2)C2CC2)c(C(F)F)n1 [Compound 37]	3.1
COc1nn(C)cc1C(=O)N(Cc1ncc(C(F)(F)F)cc1Cl)C1CC1 [Compound 39]	2.43
Cn1cc(C(=O)N(Cc2ncc(C(F)(F)F)cc2Cl)C2CC2)c(C(F)(F)F)n1 [Compound 41]	3.26
CC(c1ncc(C(F)(F)F)cc1Cl)N(C(=O)c1cn(C)nc1C(F)(F)F)C1CC1 (centres unmarked) [Compound 42]	4.01
Cn1cc(C(=O)N(Cc2ncc(C(F)(F)F)cc2Cl)C2CC2)c(I)n1 [Compound 43]	2.82
O=C(c1ccno1)N(Cc1ncc(C(F)(F)F)cc1Cl)C1CC1 [Compound 71]	3.72
